Test results reported in publication PMC10914734 (Signal Transduction and Targeted Therapy, 2024).
Read-outs that look alike come from different tables or passages of the source.

Key:
[1] = target: Human CTSE (Homo sapiens, UniProt P14091); assay: Protease panel, CTSE inhibition; assay type: biochemical; conditions: at a concentration of 20 μM; read-out: Inhibition rate, Human CTSE
[2] = target: Human CTSC (Homo sapiens, UniProt P53634); assay: biochemical
[3] = tested on: vesicular stomatitis virus G glycoprotein (VSV-G) mediated entry; assay type: cell-based
[4] = target: Human CTSD (Homo sapiens, UniProt P07339); assay: Protease panel, CTSD inhibition; assay type: biochemical; conditions: at a concentration of 20 μM; read-out: Inhibition rate, Human CTSD
Chain of Human CTSD (P07339 65-412): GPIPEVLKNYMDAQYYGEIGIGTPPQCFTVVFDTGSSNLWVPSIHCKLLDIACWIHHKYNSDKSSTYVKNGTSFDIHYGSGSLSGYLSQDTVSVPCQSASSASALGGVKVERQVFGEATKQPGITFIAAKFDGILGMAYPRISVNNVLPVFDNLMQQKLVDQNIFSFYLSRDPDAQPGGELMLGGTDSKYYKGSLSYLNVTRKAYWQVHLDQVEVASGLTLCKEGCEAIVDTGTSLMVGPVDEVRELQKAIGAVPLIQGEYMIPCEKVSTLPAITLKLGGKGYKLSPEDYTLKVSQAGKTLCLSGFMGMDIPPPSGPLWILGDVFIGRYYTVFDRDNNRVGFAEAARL

[5] = target: SARS-CoV-2 M^pro (Severe acute respiratory syndrome coronavirus 2, UniProt P0DTD1); assay: biochemical
[6] = target: Human Furin (Homo sapiens, UniProt P09958); assay: Protease panel, furin inhibition; assay type: biochemical; conditions: at a concentration of 20 μM; for inhibition: read-out: Inhibition rate, Human Furin
Chain of Human Furin (P09958 108-794): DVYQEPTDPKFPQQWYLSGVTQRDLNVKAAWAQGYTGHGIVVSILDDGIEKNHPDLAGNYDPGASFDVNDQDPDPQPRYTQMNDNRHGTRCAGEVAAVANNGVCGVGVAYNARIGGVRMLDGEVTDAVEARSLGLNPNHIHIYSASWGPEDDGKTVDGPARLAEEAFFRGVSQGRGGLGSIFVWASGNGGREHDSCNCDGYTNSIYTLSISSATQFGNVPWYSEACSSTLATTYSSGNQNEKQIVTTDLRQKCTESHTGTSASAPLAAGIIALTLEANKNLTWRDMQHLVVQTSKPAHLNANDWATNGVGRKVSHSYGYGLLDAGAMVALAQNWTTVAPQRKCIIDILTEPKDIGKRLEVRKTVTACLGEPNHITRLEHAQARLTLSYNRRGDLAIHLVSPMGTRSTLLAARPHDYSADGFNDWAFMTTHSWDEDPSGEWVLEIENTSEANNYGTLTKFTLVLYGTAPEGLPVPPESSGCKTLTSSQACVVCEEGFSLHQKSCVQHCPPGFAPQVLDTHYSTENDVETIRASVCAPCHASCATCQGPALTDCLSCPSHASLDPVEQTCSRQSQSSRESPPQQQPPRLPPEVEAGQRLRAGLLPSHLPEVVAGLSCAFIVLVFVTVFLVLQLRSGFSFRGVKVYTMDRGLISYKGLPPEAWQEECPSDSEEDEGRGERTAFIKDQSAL

[7] = tested on: B.1.617.2 (Delta); assay: microbe, parasite or virus in culture; assay type: cell-based; conditions: Severe acute respiratory syndrome coronavirus 2, Vero C1008, read-out: EC50, SARS-CoV-2 B.1.617.2 (Delta)
[8] = tested on: LPS-induced expression of proinflammatory cytokines (IL-1β, IL-6) and chemokines (CCL3, CXCL10) in Raw 264.7 mouse macrophages; assay: Anti-inflammatory assay in LPS-stimulated Raw 264.7 cells (RT-qPCR); assay type: cell-based; conditions: LPS 200 ng/mL 6 h, dose-dependent
Experimental: Mouse macrophage Raw 264.7 cells were incubated with compounds 14a or 14b at different doses for 2 h. Then, the cells were stimulated with LPS (200 ng/mL) for 6 h, followed by RT-qPCR analysis.
RNA isolation, cDNA synthesis, and RT-qPCR. Total RNA was isolated from cells using RNA extraction reagent (Vazyme, R401-01). cDNA was synthesized using the HiScript IIQ RT SuperMix (Vazyme, R223-01), according to manufacturer’s instructions. RT-qPCR was performed using ChamQ SYBR qPCR Master Mix (Vazyme, Q331-02) in a CFX96TM Real-Time PCR Detection System (Bio-Rad, Shanghai, China). The profile of thermal cycling consisted of initial denaturation at 95 °C for 30 s, 40 cycles at 95 °C for 5 s and 60 °C for 30 s. All primer sequences used in this study are listed in Supplementary Table S5.

[9] = tested on: HCoV-OC43; assay: Protective effect against HCoV-OC43 infection in newborn mice; assay type: in vivo
Experimental: We also further assessed the in vivo antiviral activity of compound 14b against HCoV-OC43 infection in a mouse model. In the HCoV-OC43 infection mouse model, we treated newborn mice with 14b at a dose of 5 mg/kg by intraperitoneal injection 24 h after challenge with HCoV-OC43 at 100 TCID50.
Protective effect of 14b against HCoV-OC43 in vivo was assessed as previously reported.[45] All newborn mice were challenged with HCoV-OC43 (100 TCID50) by intranasal administration. For mice in the 14b-treated group, 14b (5 mg/kg) in a proper solution (1% dimethyl sulfoxide, 9% polyethylene glycol 300, and 90% aqueous solution containing 28% (w/v) hydroxypropyl β-cyclodextrin, volume ratio) was given by intraperitoneal injection. Mice in the viral control group were treated with PBS. Body weight and survival rate of these mice were then observed up to the 15th day post-infection.

Chain of Human CTSE (P14091 54-396): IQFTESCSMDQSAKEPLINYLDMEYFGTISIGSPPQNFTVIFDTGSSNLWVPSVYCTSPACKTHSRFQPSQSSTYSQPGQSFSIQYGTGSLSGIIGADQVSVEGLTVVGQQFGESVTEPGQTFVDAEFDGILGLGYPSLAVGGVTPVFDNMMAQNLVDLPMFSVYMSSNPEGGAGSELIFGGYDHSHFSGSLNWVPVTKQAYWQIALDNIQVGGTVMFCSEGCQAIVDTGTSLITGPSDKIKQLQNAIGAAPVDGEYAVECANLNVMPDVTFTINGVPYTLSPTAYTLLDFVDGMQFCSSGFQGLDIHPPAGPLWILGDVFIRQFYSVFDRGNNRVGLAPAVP
Chain of Human CTSC (P53634 25-463): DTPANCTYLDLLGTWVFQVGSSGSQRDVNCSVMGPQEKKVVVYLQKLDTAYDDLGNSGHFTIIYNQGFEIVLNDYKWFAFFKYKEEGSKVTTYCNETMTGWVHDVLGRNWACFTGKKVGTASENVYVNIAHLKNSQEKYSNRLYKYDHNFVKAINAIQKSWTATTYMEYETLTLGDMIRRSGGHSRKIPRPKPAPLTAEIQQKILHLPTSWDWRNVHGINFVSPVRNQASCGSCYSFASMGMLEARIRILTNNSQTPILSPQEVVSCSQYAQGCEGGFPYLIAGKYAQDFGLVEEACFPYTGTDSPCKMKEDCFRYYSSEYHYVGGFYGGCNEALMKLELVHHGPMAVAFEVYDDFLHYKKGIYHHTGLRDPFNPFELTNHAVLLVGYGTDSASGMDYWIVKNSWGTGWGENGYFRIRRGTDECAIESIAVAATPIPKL

| SMILES | inhibition [1] [%] | IC50 [2] [nM] | Inhibitory activity on VSV-G mediated entry [3] | inhibition [4] [%] | IC50 [5] [nM] | Inhibitory activity against furin (in words) [6] | inhibition [6] [%] | EC50 [7] [nM] | LPS-induced expression of proinflammatory cytokines (IL-1β, IL-6) and chemokines (CCL3, CXCL10) [8] | Body weight of infected mice ([9]; HCoV-OC43 100 TCID50, 5 mg/kg intraperitoneal injection) | Final survival rate ([9]; HCoV-OC43 100 TCID50, 5 mg/kg intraperitoneal injection 24 h after challenge) [%] | IC50 ([2]; read-out: IC50, Human CTSC) [nM] |
| --- | --- | --- | --- | --- | --- | --- | --- | --- | --- | --- | --- | --- |
| O=C(NCc1ccccc1)C(=O)[C@H](C[C@@H]1CCCNC1=O)NC(=O)[C@H](Cc1ccc(F)cc1)NC(=O)c1cc2ccccc2o1 [14a, N-((S)-1-(((S)-4-(benzylamino)-3,4-dioxo-1-((S)-2-oxopiperidin-3-yl)butan-2-yl)amino)-3-(4-fluorophenyl)-1-oxopropan-2-yl)benzofuran-2-carboxamide] | 13 ± 1 | 181 ± 30.4 | no inhibitory activity | 21 ± 1 | 12600 | did not exhibit inhibitory activity | 3 ± 4 | 11 ± 1.8 | significantly inhibited | – | – | – |
| O=C(NCc1ccccc1)C(=O)[C@H](C[C@@H]1CCCNC1=O)NC(=O)[C@H](CC1CCCCC1)NC(=O)c1cc2ccccc2o1 [14b, N-((S)-1-(((S)-4-(benzylamino)-3,4-dioxo-1-((S)-2-oxopiperidin-3-yl)butan-2-yl)amino)-3-cyclohexyl-1-oxopropan-2-yl)benzofuran-2-carboxamide] | 11 ± 2 | – | no inhibitory activity | 29 ± 2 | 990 | did not exhibit inhibitory activity | -4 ± 1 | 28.6 ± 3.79 | significantly inhibited | either mildly decreased or rapidly recovered | 60 | 66.2 ± 7.85 |
